Source: publication PMC11555717 (Cancer Medicine, 2024)
“Also recorded” adds a separate entry of the source. Marks after values point to notes of the source that are not given here.

How the values were obtained:
[1] = test system: Chinese patients with previously treated locally advanced or metastatic urothelial carcinoma; experiment: EV-203 phase 2: antitumor activity per RECIST v1.1 (IRC and investigator), PFS, OS; format: in vivo, human; conditions: for Confirmed disease control rate (95% CI): CR, PR or stable disease; for Duration of response, median (95% CI): NE = not evaluable; for Confirmed best overall response: Stable disease: minimum duration 49 days; for Confirmed objective response rate (95% CI): RECIST v1.1, 1.25 mg/kg
Text: This was a single‐arm, open‐label phase 2 study that enrolled patients from six centers in China. Up to 40 patients were planned for enrollment. Two of the study centers were designated as PK cohort sites and planned to enroll 12 or more patients who agreed to intensive PK sampling for PK analysis in addition to safety and efficacy assessments.
The study enrolled Chinese adults (age ≥ 18 years or considered an adult per local regulations) with histologically or cytologically confirmed UC/transitional cell carcinoma of the bladder, renal pelvis, ureter, or urethra not amenable to curative intent treatment. Patients with other histologies, including adenocarcinoma, squamous differentiation, or mixed, were also eligible. Patients must have received prior treatment with platinum‐based chemotherapy and PD‐1/L1 inhibitor therapy in the locally advanced or metastatic setting or in the neoadjuvant or adjuvant setting with recurrence or progressive disease during therapy or within 12 months (platinum‐based chemotherapy) or 3 months (PD‐1/L1 inhibitor) of completion of treatment; had baseline measurable disease according to Response Evaluation Criteria in Solid Tumors (RECIST) version 1.1; and an Eastern Cooperative Oncology Group performance status (ECOG PS) of 0–1. Key exclusion criteria were preexisting grade 2 or higher sensory/motor neuropathy; active central nervous system metastases; clinically significant toxicity associated with prior treatment; ongoing grade 3 or higher immunotherapy‐related hypothyroidism or panhypopituitarism, ongoing immunotherapy‐related colitis, uveitis, myocarditis, or pneumonitis; other immunotherapy‐related adverse events (AEs) requiring high‐dose steroids (prednisone > 20 mg/day or equivalent); or history of uncontrolled diabetes mellitus (glycated hemoglobin ≥ 8% or between 7% and < 8% with diabetes‐related symptoms not otherwise explained) within 3 months prior to the first study dose.
Study treatment continued until one or more of the following occurred: patient or investigator decision; documented radiologic disease progression per RECIST version 1.1 by investigator assessment; start of new anticancer therapy; unacceptable toxicity; pregnancy; protocol noncompliance; or more than six consecutive doses of study treatment missed by the patient. Prespecified dose modifications were permitted depending on AE type and severity.
Antitumor activity was assessed every 8 weeks (±1 week) via computed tomography with contrast. After 1 year of study, imaging frequency was reduced to every 12 weeks (±1 week). Complete response (CR) and partial response (PR; per RECIST version 1.1) were confirmed by repeat scans conducted at least 4 weeks after the initial response. Responses were assessed by investigators and an independent review committee (IRC). Tumor assessments were continued until the study end or the first occurrence of radiologic disease progression per RECIST version 1.1, as determined by investigator assessment, the patient initiated new anticancer therapy, or the patient died, withdrew study consent, or was lost to follow‐up.
The primary efficacy endpoint was confirmed ORR as assessed by IRC. The ORR was defined as the proportion of patients with CR or PR according to RECIST version 1.1. […] Other primary endpoints included selected PK parameters of ADC, TAb, and free MMAE.
Secondary endpoints were confirmed ORR by investigator assessment; DOR, disease control rate (DCR), and progression‐free survival (PFS) by IRC and investigator assessments; OS; incidence of ATAs to ADC; and safety/tolerability. PFS was defined as the time from the start of the study treatment to the first documentation of objective tumor progression (i.e., progressive disease per RECIST version 1.1) by IRC or investigator assessment (whichever was specified) or to death due to any cause, whichever came first. OS was defined as the time from the start of study treatment to the date of death due to any cause. […]

[2] = EV-203 pharmacokinetics of ADC, TAb and free MMAE in serum or plasma; format: in vivo, human; conditions: for Serum concentration at end of infusion / AUC0–7d / C max: mean (SD); for AUC0–7d: 1.25 mg/kg IV
Procedure: In the PK cohort (i.e., PK analysis set), intensive PK sampling was performed wherein blood samples for analysis of ADC, total antibody (TAb), and free (unconjugated) MMAE were collected at prespecified time points. […] Blood samples for antitherapeutic antibodies (ATAs) were collected predose on Day 1 of cycles 1 to 4, 6, 8, 10, and within 30–37 days after the last study dose. Validated assays were used to measure concentrations of ADC, TAb, and free MMAE in serum or plasma and to assess ATA levels.
All patients who received any amount of study drug were included in the primary analyses of efficacy endpoints and safety analyses. The PK analyses included data from patients in the PK cohort who received at least 3 of 4 doses of the study drug through cycle 2 Day 1 and had at least five blood samples collected and assayed for measurements of ADC, TAb, or free MMAE concentrations to determine at least one PK parameter.

[3] = test system: patients with previously treated locally advanced or mUC; conditions: EV-301; cited from earlier work
[4] = test system: patients with locally advanced or mUC previously treated with platinum-based chemotherapy and PD-1/L1 inhibitors; conditions: cited from earlier work
[5] = serum, Cycle 1 Day 1, PK cohort
[6] = serum, Cycle 1 Day 15, PK cohort

enfortumab vedotin: fully human monoclonal ADC directed to Nectin-4, delivering intracellular monomethyl auristatin E (MMAE) to tumor cells
Median time to response ([1]; IRC assessment): 1.8 (range, 1.7–3.8) months | Median PFS ([1]; IRC assessment, N = 40): 4.7 months | Best overall response PR, patients ([1]; IRC, 14 patients): 35.0% | Patients with reductions of 30% or more from baseline in target lesions ([1]; IRC, 24 of 37 patients): 64.9% | Patients with reduction in sum of diameters of target lesions from baseline ([1]; IRC, 33 of 37 patients with baseline and postbaseline assessments): 89.2% | Confirmed disease control rate (95% CI) ([1]; IRC, N = 40): 72.5 (56.1–85.4) % | Rate of duration of response (95% CI) at 6 months ([1]; IRC, Kaplan–Meier): 59.7 (22.2–83.8) % | Duration of response, median (95% CI) ([1]; IRC, Kaplan–Meier): not reached; also recorded: NE (2.04–NE) | Confirmed best overall response: CR ([1]; IRC, N = 40): 1 (2.5) n (%) | Confirmed best overall response: NE (not evaluable) ([1]; IRC, N = 40): 4 (10.0) n (%) | Confirmed best overall response: PR ([1]; IRC, N = 40): 14 (35.0) n (%) | Confirmed best overall response: Progressive disease ([1]; IRC, N = 40): 7 (17.5) n (%) | Confirmed best overall response: Stable disease ([1]; IRC, N = 40): 14 (35.0) n (%) | Confirmed objective response rate (95% CI) ([1]; IRC, N = 40): 37.5 (22.7–54.2) ^b % | ORR, subgroup patients with liver metastases ([1]; IRC, n/N = 5/11): 45.5% | ORR, subgroup three or more lines of systemic therapy ([1]; IRC, n/N = 6/18): 33.3% | ORR, subgroup baseline ECOG PS of 0 ([1]; IRC, n/N = 7/10): 70.0% | ORR, subgroup primary tumor site bladder or other ([1]; IRC, n/N = 7/11): 63.6% | ORR, subgroup primary tumor site upper tract ([1]; IRC, n/N = 8/29): 27.6% | ORR, subgroup baseline ECOG PS of 1 ([1]; IRC, n/N = 8/30): 26.7% | Best overall response CR, patients ([1]; IRC, one patient): 2.5% | Confirmed disease control rate (95% CI) ([1]; Investigator, N = 40): 82.5 (67.2–92.7) % | Rate of duration of response (95% CI) at 6 months ([1]; Investigator, Kaplan–Meier): 61.1 (26.2–83.4) % | Duration of response, median (95% CI) ([1]; Investigator, Kaplan–Meier): not reached; also recorded: NE (2.04–NE) | Confirmed best overall response: CR ([1]; Investigator, N = 40): 0 n (%) | Confirmed best overall response: NE (not evaluable) ([1]; Investigator, N = 40): 3 (7.5) n (%) | Confirmed best overall response: PR ([1]; Investigator, N = 40): 17 (42.5) n (%) | Confirmed best overall response: Progressive disease ([1]; Investigator, N = 40): 4 (10.0) n (%) | Confirmed best overall response: Stable disease ([1]; Investigator, N = 40): 16 (40.0) n (%) | Confirmed objective response rate (95% CI) ([1]; Investigator, N = 40): 42.5 (27.0–59.1) % | Overall survival at 6 months (95% CI) ([1]; Kaplan–Meier, N = 40): 78.0 (60.1–88.6) % | Median PFS ([1]; investigator assessment, N = 40): 4.2 months | Median OS ([1]; median follow-up 6.5 months): not reached (lower bound of 95% CI: 6.74) | Serum concentration at end of infusion ([2]; cycle 1 Day 1, Non-PK cohort): 25,300 (3830) [23] ng/mL | Serum concentration at end of infusion ([2]; cycle 1 Day 1, PK cohort): 27,700 (4410) [13] ng/mL | Serum concentration at end of infusion ([2]; cycle 1 Day 8, Non-PK cohort): 24,900 (5400) [17] ng/mL | Serum concentration at end of infusion ([2]; cycle 1 Day 8, PK cohort): 27,400 (4390) [12] ng/mL | Serum concentration at end of infusion ([2]; cycle 1 Day 15, Non-PK cohort): 22,000 (5980) [11] ng/mL | Serum concentration at end of infusion ([2]; cycle 1 Day 15, PK cohort): 27,500 (3820) [10] ng/mL | AUC0–7d [2, 5]: 32.4 (6.2) day μg/mL | C max [2, 5]: 28.1 (4.52) μg/mL | AUC0–7d [2, 6]: 36.5 (7.9) day μg/mL | C max [2, 6]: 27.6 (4.01) μg/mL | Time of peak serum concentration ([2]; serum, PK cohort cycle 1): at the end of the enfortumab vedotin infusion | Median OS [3]: 12.88 months | Median PFS [3]: 5.6 months | Probability of OS at 6 months [3]: approximately 80% | Median duration of response (DOR) ([4]; EV-201): 7.6 months | Objective response rate (ORR) ([4]; EV-201 cohort 1 (n = 125)): 44%
